In patent publication US11396517B1, “Exo-aza spiro inhibitors of menin-MLL interaction” (Janssen Pharmaceutica NV, priority 2017, dated 2022):
Where two headings read alike, the source gives them in different places.

What was measured:
menin = target: T1, menin (Homo sapiens, UniProt O00255, T541A); assay: Menin/MLL homogenous time-resolved fluorescence (HTRF) assay; type: binding
T1 construct: Menin (a.a. 1-610-6×his tag)
T1 sequence (O00255 with tags, fused parts or gaps T541A): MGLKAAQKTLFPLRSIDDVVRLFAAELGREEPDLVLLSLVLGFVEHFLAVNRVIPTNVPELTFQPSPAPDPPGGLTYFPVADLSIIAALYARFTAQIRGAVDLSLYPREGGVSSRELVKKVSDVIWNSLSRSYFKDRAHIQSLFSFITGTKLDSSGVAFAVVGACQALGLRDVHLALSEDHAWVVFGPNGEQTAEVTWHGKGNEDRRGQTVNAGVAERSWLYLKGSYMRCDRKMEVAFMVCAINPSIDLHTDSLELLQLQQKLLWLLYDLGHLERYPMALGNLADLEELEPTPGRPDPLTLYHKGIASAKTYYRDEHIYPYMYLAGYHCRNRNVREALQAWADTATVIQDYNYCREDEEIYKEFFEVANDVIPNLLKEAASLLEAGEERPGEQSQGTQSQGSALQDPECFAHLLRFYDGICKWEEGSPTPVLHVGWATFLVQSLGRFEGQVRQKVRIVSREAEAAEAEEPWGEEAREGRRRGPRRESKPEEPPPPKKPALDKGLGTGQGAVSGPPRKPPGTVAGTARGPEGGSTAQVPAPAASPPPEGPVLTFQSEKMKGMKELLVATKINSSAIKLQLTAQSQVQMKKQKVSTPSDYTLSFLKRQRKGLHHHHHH
In short: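 Displacement of 75 nM FITC-MBM1 from terbium-cryptate-labeled His-tagged menin 1-610 ([…]) was read as the 520/490 nm HTRF ratio. Compound (11-point, 3-fold series) got 5 min with menin before peptide, then 15 min at ambient; 0.5% DMSO, Tris pH 7.5.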

MV-4-11 = assay: Proliferation assay A (spheroid assay) MV-4-11; type: cell-based, human; settings: MV-4-11 cells, 8 d, AUC of confluence against time, absolute IC50, read-out: (3a) Spheroid assay MV-4-11 (IC50(μM)) Assay A
Description: 3a) Proliferation Assay A
The anti-proliferative effect of menin/MLL protein/protein interaction inhibitor test compounds was assessed in human leukemia cell lines. The cell lines MV-4-11 and MOLM14 harbor MILL translocations and express the MILL fusion proteins MLL-AF4 and MLL-AF9, respectively, as well as the wildtype protein from the second allele. […] K562 was used as a control cell line containing two MLL wildtype alleles in order to exclude compounds that display general cytotoxic effects.
MV-4-11 and MOLM14 were cultured in RPMI-1640 (Sigma Aldrich) supplemented with 10% fetal bovine serum (HyClone), 2 mM L-glutamine (Sigma Aldrich) and 50 μg/ml gentamycin (Gibco). K562 were propagated in RPMI-1640 (Sigma Aldrich) supplemented with 20% fetal bovine serum (HyClone), 2 mM L-glutamine (Sigma Aldrich) and 50 μg/ml gentamycin (Gibco).
In order to assess the anti-proliferative effects, 1,500 MV-4-11, 300 MOLM14 or 750 K562 cells were seeded in 200 μl media per well in 96-well round bottom, ultra-low attachment plates (Costar, catalogue number 7007). Cell seeding numbers were chosen based on growth curves to ensure linear growth throughout the experiment. Test compounds were added at different concentrations and the DMSO content was normalized to 0.3%. Cells were incubated for 8 d at 37° C. and 5% CO2. Spheroid like growth was monitored in real-time by live-cell imaging (IncuCyteZOOM, Essenbio, 4× objective) acquiring one image every four hours for 8 d. Confluence (%) as a measure of spheroid size was determined using an integrated analysis tool.
In order to determine the cumulative effect of the test compounds over time, the area under the curve (AUC) in a plot of confluence against time was calculated. Confluence at the beginning of the experiment (t=0) was used as baseline for the AUC calculation.
Absolute IC50 values were calculated according to the following procedure: % Control=(AUC sample/AUC control)*100
AUC control mean AUC of control values (cells without compound/DMSO as vehicle control)
A non-linear curve fit was applied using the least squares (ordinary) fit method to the plot of % control versus compound concentration. Based on this, the absolute IC50 value (half maximal inhibitory concentration of the test compound causing an anti-proliferative effect of 50% relative to the vehicle control) was calculated.

MOLM14 = assay: Proliferation assay B (spheroid assay) MOLM14; type: cell-based, human; settings: MOLM14 cells, confluence at day 8, absolute IC50, read-out: (3b) Spheroid assay MOLM14 (IC50(μM)) Assay B
In short: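 IC50 derived from % effect on day-8 imaged confluence, scaled between DMSO-treated cells (high) and 1 μM staurosporine (low), using a variable-slope fit constrained 0-100%. Cells seeded as spheroids in ultra-low-attachment plates and exposed to compound for 8 days, 0.3% DMSO.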

[1] = location 2, read-out: (2) location 2 Menin HTRF assay (IC50 (nM))
[2] = location 1, read-out: (2) location 1 Menin HTRF assay (IC50 (nM))

| IC50 (menin; [1]) | IC50 (MV-4-11; Homo sapiens, MV4-11, 192 h) | Structure (SMILES) | also measured |
| --- | --- | --- | --- |
| 450 nM | 3.55 µM | O=S(=O)(NC1CC2(CCN(c3ncnc4sc(CC(F)(F)F)cc34)C2)C1)c1ccccc1 (mixture of isomers) [Compound 22] |  |
| 48.6 nM | 4.9 µM | FC(F)(F)Cc1cc2c(N3CCC4(CC(Nc5ccccc5)C4)C3)ncnc2s1 (mixture of isomers) [Compound 35] |  |
| 133 nM | 3.91 µM | CN(C)CC1CC2(CCN(c3ncnc4sc(CC(F)(F)F)cc34)C2)C1 (mixture of isomers) [Compound 196] |  |
| 47.3 nM | 1.23 µM | Nc1nc(N2CCC3(CC(NCc4ccccc4)C3)C2)c2cc(CC(F)(F)F)sc2n1 (mixture of isomers) [Compound 263] |  |
| 8.8 nM | 1.26 µM | CNS(=O)(=O)c1ccc(NC2CC3(CCN(c4ncnc5sc(CC(F)(F)F)cc45)C3)C2)cc1 (mixture of isomers) [Compound 316] |  |
| 20.1 nM | 0.91 µM | FC(F)(F)Cc1cc2c(N3CCC4(CC(Nc5ccc(-c6cn[nH]c6)cc5)C4)C3)ncnc2s1 (mixture of isomers) [Compound 326] |  |
| 19.6 nM | 1.26 µM | CC(=O)Nc1ccc(NC2CC3(CCN(c4ncnc5sc(CC(F)(F)F)cc45)C3)C2)cc1 (mixture of isomers) [Compound 330] |  |
| 68.3 nM | 2.6 µM | CNc1nc(N2CCC3(CC(Nc4ccc5[nH]c(=O)[nH]c5c4)C3)C2)c2cc(CC(F)(F)F)sc2n1 (mixture of isomers) [Compound 393] |  |
| 17.8 nM | 1.8 µM | CNc1nc(N2CCC3(CC(Nc4ccc5oc(=O)[nH]c5c4)C3)C2)c2cc(CC(F)(F)F)sc2n1 (mixture of isomers) [Compound 396] |  |
| 82.9 nM | > 3.75 µM | CNS(=O)(=O)c1ccc(NC2CCC3(C2)CN(c2ncnc4sc(CC(F)(F)F)cc24)C3)cc1 (racemic) [Compound 279] |  |
| 84.5 nM | 1.64 µM | FC(F)(F)Cc1cc2c(N3CCC4(CCC(NCc5ccccc5)CC4)C3)ncnc2s1 (single isomer, unassigned) [Compound 2] | IC50 (menin; [2]): 91.2 nM |
| 63.8 nM |  | FC(F)(F)Cc1cc2c(N3CC[C@]4(CC[C@@H](NCc5ccccc5)C4)C3)ncnc2s1 (single isomer, unassigned) [Compound 5] | IC50 (menin; [2]): 304 nM; IC50 (MV-4-11): 1.69 µM |
| 37.7 nM | 3.16 µM | N#CCc1ccc(NC2CC3(CCN(c4ncnc5sc(CC(F)(F)F)cc45)C3)C2)c(Cl)c1 (single isomer, unassigned) [Compound 208] |  |
| 18.2 nM | 2.13 µM | N#CCc1ccc(NC2CC3(CCN(c4ncnc5sc(CC(F)(F)F)cc45)C3)C2)cc1Cl (single isomer, unassigned) [Compound 211] |  |
| 78.6 nM | > 3.75 µM | CNc1nc(N2CCC3(CC(Nc4ccccc4)C3)C2)c2cc(CC(F)(F)F)sc2n1 (single isomer, unassigned) [Compound 269] |  |
| 51.9 nM | > 3.75 µM | CNS(=O)(=O)c1ccc(N[C@H]2CCC3(C2)CN(c2ncnc4sc(CC(F)(F)F)cc24)C3)cc1 (single isomer, unassigned) [Compound 291] |  |
| 11 nM | 2.77 µM | O=C1Cc2ccc(N[C@@H]3CCC4(C3)CN(c3ncnc5sc(CC(F)(F)F)cc35)C4)cc2N1 (single isomer, unassigned) [Compound 293] |  |

| IC50 (menin; [1]) | IC50 (MV-4-11; Homo sapiens, MV4-11, 192 h) | Structure (SMILES) | also measured |
| --- | --- | --- | --- |
| 94.8 nM | > 3.75 µM | O=c1[nH]c2ccc(N[C@@H]3CCC4(C3)CN(c3ncnc5sc(CC(F)(F)F)cc35)C4)cc2[nH]1 (single isomer, unassigned) [Compound 299] |  |
| 41.6 nM | 3.71 µM | O=c1[nH]c2ccc(NC3CC4(CCN(c5ncnc6sc(CC(F)(F)F)cc56)C4)C3)cc2[nH]1 (single isomer, unassigned) [Compound 320] |  |
| 915 nM |  | O=c1[nH]c2ccc(NC3CC4(CCN(c5ncnc6sc(CC(F)(F)F)cc56)C4)C3)cc2[nH]1 (single isomer, unassigned) [Compound 321] | IC50 (MV-4-11): > 3.75 µM |
| 26.4 nM | 3.66 µM | O=c1[nH]c2ccc(NC3CC4(CCN(c5ncnc6sc(CC(F)(F)F)cc56)C4)C3)cc2o1 (single isomer, unassigned) [Compound 323] |  |
| 27.2 nM |  | Nc1nc(N2CCC3(CC(Nc4ccc5[nH]c(=O)oc5c4)C3)C2)c2cc(CC(F)(F)F)sc2n1 (single isomer, unassigned) [Compound 385] | IC50 (MV-4-11): > 3.75 µM |
| 658 nM | 13.5 µM | FC(F)(F)Cc1cc2c(N3CC4(CCC(Nc5ccccc5)C4)C3)ncnc2s1 (stereo not drawn) [Compound 7] |  |
| 585 nM | 11.9 µM | CS(=O)(=O)Nc1ccc(C(=O)NC2CC3(CCN(c4ncnc5sc(CC(F)(F)F)cc45)C3)C2)cc1 (stereo not drawn) [Compound 27] |  |
| 447 nM | 5.21 µM | FC(F)(F)Cc1cc2c(N3CCC4(CC(CNc5ccccc5)C4)C3)ncnc2s1 (stereo not drawn) [Compound 38] |  |
| 339 nM | 10 µM | CN(CC1CC2(CCN(c3ncnc4sc(CC(F)(F)F)cc34)C2)C1)c1ccccc1 (stereo not drawn) [Compound 41] |  |
| 27.8 nM | 2.73 µM | Cn1c(=O)[nH]c2cc(NC3CC4(CCN(c5ncnc6sc(CC(F)(F)F)cc56)C4)C3)ccc21 (stereo not drawn) [Compound 89] |  |
| 5.3 nM | 0.48 µM | FC(F)(F)Cc1cc2c(N3CCC4(CC(Nc5ccc(-c6cc[nH]n6)cc5)C4)C3)ncnc2s1 (stereo not drawn) [Compound 92] |  |
| 18 nM |  | CS(=O)(=O)N[C@H]1CC[C@@H](NC2CC3(CCN(c4ncnc5sc(CC(F)(F)F)cc45)C3)C2)CC1 (stereo partly drawn) [Compound 272] | IC50 (MOLM14): 2.56 µM |
| 5.1 nM |  | CS(=O)(=O)N1CC(CC(C#N)c2ccc(NC3CC4(CCN(c5ncnc6sc(CC(F)(F)F)cc56)C4)C3)cc2)C1 (stereo not drawn) [Compound 339] | IC50 (MOLM14; Homo sapiens, MOLM-14, 192 h): 2.41 µM |
| 43.7 nM |  | CS(=O)(=O)N1CCN(CC(O)c2ccc(NC3CC4(CCN(c5ncnc6sc(CC(F)(F)F)cc56)C4)C3)cc2)CC1 (stereo not drawn) [Compound 354] | IC50 (MOLM14; Homo sapiens, MOLM-14, 192 h): > 3.75 µM |
| 30.6 nM |  | CS(=O)(=O)N1CCC(C(N)=O)(c2ccc(NC3CC4(CCN(c5ncnc6sc(CC(F)(F)F)cc56)C4)C3)cc2)CC1 (stereo not drawn) [Compound 376] | IC50 (MOLM14; Homo sapiens, MOLM-14, 192 h): > 3.75 µM |
| 135 nM |  | O=C(c1ccc(NC2CC3(C2)CN(c2ncnc4sc(CC(F)(F)F)cc24)C3)cc1)N1CCOCC1 [Compound 423] | IC50 (MOLM14; Homo sapiens, MOLM-14, 192 h): > 3.75 µM |

| Structure (SMILES) | IC50 (menin; [1]) | IC50 (MV-4-11; Homo sapiens, MV4-11, 192 h) | also measured |
| --- | --- | --- | --- |
| N#CCc1ccc(NC2CC3(CCN(c4nc(N)nc5sc(CC(F)(F)F)cc45)C3)C2)cc1 (mixture of isomers) [Compound 377] | 7.5 nM | 1.12 µM |  |
| N#CCc1ccc(NC2CC3(CCN(c4nc(N)nc5sc(CC(F)(F)F)cc45)C3)C2)cc1 (single isomer, unassigned) [Compound 378] | 42.9 nM | > 3.75 µM |  |
